Results from patent US6514952B1, “Hydantoin derivatives as inhibitors of leucocyte adhesion and as VLA-4 antagonists” (Hoechst Aktiengesellschaft, priority 1996, dated 2003).

Target: T1, interaction between VCAM-1 and VLA-4 (Homo sapiens, UniProt P05556+P13612)
T1 construct: the VLA-4-integrins, are offered in their natural form as surface molecules on human U937 cells; host or cells: U937 cells (VLA-4, endogenous); hVCAM-1(1-3)-IgG from supernatant of transfected COS cells (ATCC CRL1651)
Experiment: U937/VCAM-1 cell adhesion test (adhesion of U937 cells to hVCAM-1(1-3)-IgG)
Assay type: cell-based
Settings: inhibition of adhesion of human U937 cells (ATCC CRL 1593) to hVCAM-1(1-3)-IgG
Description: As a test method for the activity of the compounds of the formula I on the interaction between VCAM-1 and VLA-4, an assay is used which is specific for this interaction. The cellular binding components, i.e. the VLA-4-integrins, are offered in their natural form as surface molecules on human U937 cells (ATCC CRL 1593), which belong to the group of leucocytes. As specific binding components, recombinant soluble fusion proteins, prepared by genetic engineering and consisting of the extracytoplasmic domains of human VCAM-1 and the constant region of a human immunoglobulin of the subclass IgG1, are used.
Assay for the Measurement of the Adhesion of U937 Cells (ATCC CRL 1593) to hVCAM-1(1-3)-IgG
1. Preparation of Human VCAM-1(1-3)-IgG and Human CD4-IgG
A genetic construct for the expression of the extracellular domains of human VCAM-1 was employed, associated with the genetic sequence of the heavy chain of human immunoglobulin IgG1 (hinge, CH2 and CH3 regions), from Dr. Brian Seed, Massachusetts General Hospital, Boston, USA. The soluble fusion protein hVCAM-1(1-3)-IgG contained the throe amino-terminal extracellular immunoglobulin-like domains of human VCAM-1 (Damle and Aruffo, Proc. Natl. Acad. Sci. USA 1991, 88, 6403). CD4-IgG (Zettlmeissl et al., DNA and Cell Biology 1990, 9, 347) served as a fusion protein for negative controls. The recombinant proteins were expressed as soluble proteins after DEAE/dextran-mediated DNA-transfection in COS cells (ATCC CRL1651) according to standard procedures (Ausubel et al., Current protocols in molecular biology, John Wiley & Sons, Inc., 1994).
2. Assay for the Measurement of the Adhesion of U937 Cells to hVCAM-1(1-3)-IgG
2.1 96-well microtiter test plates (Nunc Maxisorb) were incubated at room temperature for 1 hour with 100 μl/well of a goat-anti-human IgG antibody solution (10 μg/ml in 50 mM Tris, pH 9.5). After removing the antibody solution, washing was carried out once with PBS.
2.2 150 μl/well of a blocking buffer (1% BSA in PBS) was incubated on the plates at room temperature for 0.5 hour. […]

T1 sequence (P13612 34-1032): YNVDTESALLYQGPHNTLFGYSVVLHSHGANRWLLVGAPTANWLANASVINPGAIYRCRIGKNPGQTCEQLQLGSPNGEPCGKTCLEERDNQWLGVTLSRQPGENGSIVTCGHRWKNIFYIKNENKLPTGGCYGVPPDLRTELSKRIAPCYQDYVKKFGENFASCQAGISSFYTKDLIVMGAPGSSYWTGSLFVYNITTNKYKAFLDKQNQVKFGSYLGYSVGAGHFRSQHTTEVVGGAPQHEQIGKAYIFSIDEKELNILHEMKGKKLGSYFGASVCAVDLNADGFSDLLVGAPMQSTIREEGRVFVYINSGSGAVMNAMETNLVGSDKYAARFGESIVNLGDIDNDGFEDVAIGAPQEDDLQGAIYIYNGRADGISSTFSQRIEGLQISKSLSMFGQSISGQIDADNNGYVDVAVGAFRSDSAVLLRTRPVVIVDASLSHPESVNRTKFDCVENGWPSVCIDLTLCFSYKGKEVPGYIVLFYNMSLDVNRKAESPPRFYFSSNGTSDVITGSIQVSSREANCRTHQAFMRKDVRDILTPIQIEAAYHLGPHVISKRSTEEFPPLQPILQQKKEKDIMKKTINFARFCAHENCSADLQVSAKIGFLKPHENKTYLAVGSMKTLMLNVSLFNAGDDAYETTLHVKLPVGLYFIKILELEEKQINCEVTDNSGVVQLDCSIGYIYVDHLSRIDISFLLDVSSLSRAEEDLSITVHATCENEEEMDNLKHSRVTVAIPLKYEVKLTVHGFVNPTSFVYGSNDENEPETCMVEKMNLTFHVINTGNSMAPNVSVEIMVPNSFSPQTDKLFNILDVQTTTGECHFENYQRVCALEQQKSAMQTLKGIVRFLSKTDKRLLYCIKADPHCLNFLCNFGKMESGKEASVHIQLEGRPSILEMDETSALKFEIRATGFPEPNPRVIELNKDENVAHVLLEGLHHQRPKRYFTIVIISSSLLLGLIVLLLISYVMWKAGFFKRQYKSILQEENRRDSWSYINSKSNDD
T1 sequence (P05556 21-798): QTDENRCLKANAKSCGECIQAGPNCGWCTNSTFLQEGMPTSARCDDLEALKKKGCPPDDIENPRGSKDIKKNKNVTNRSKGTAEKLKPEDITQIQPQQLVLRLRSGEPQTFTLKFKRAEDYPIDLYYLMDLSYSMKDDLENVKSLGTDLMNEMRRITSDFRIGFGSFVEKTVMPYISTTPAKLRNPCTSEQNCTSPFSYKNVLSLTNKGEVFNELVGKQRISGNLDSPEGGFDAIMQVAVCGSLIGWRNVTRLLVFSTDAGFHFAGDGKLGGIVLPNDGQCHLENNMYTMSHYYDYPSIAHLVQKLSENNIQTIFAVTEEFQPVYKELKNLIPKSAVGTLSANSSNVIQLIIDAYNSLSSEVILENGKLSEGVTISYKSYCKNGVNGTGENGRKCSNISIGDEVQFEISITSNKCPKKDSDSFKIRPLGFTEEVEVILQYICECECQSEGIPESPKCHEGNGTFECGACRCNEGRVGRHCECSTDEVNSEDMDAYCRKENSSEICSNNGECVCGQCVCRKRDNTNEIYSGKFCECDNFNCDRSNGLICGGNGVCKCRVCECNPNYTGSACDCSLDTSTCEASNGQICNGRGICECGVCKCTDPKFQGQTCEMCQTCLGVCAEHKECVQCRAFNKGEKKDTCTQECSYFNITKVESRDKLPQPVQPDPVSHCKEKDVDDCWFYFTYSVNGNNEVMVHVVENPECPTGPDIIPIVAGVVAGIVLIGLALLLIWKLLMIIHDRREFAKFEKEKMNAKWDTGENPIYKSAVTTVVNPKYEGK

| IC50 | Structure (SMILES) |
| --- | --- |
| 7.5 µM | CC1(c2ccc(C(N)=O)cc2)C(=O)N(CC(=O)N[C@@H](CC(=O)O)C(=O)N[C@H](C(=O)O)c2ccccc2)C(=O)N1Cc1ccccc1 (stereo partly drawn) [Example 1] |
| 14.5 µM | CC1(c2ccc(C3=NCCN3)cc2)C(=O)N(CC(=O)N[C@@H](CC(=O)O)C(=O)N[C@H](C(=O)O)c2ccccc2)C(=O)N1Cc1ccc2ccccc2c1 (stereo partly drawn) [Example 2, ((R,S)-4-(4-(4,5-Dihydro-2-imidazolyl)phenyl)-3-(2-naphthylmethyl)-4-methyl-2,5-dioxoimidazolidin-1-yl)acetyl-L-aspartyl-L-phenylglycine] |
| 40 µM | CC1(c2ccc(C3=NCCN3)cc2)C(=O)N(CC(=O)NC[C@H](NC(=O)OCC23CC4CC(CC(C4)C2)C3)C(=O)O)C(=O)N1Cc1ccc2ccccc2c1 (stereo partly drawn) [Example 3, (S)-3-(((R,S)-4-(4-(4,5-Dihydro-2-imidazolyl)phenyl)-3-(2-naphthylmethyl)-4-methyl-2,5-dioxoimidazolidin-1-yl)acetylamino)-2-(1-adamantyl-methyloxycarbonylamino)propionic Acid] |
